This passage reports LDH release cytotoxicity results from the supplement of paper PMC7840683.

In this test the test system is HepaRG. Kind of test: LDH release cytotoxicity, % of total lysis control; higher = more cytotoxic. The conditions noted are these: 48 h. Summed up: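 Single-lot HepaRG cells in collagen I-coated 96-well plates were treated for 48 h in serum-free induction medium containing 0.5% DMSO with test chemicals in eight-point half-log series up to 100 µM. For total lysis, wells received 0.1% Triton X. LDH in 50 µL spent medium was assayed by resorufin fluorescence with CytoTox-ONE. Percent cytotoxicity was normalized to the on-plate vehicle and total lysis controls, with duplicates averaged.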

The structures appear in SMILES notation. ± gives the standard deviation of the averaged measurements.

As for `CCOC1Oc2ccc(OS(C)(=O)=O)cc2C1(C)C` (centres undefined) [Ethofumesate], the LDH release cytotoxicity is -1.31 ± 0.47% (0.031623 µM); -1.58 ± 2.8% (0.1 µM); -1.7 ± 0.31% (0.316228 µM); -3.38 ± 0.38% (1 µM); -2.65 ± 1.5% (3.16228 µM); -3.76 ± 1.5% (10 µM). Also, the LDH release cytotoxicity by setting is: (31.6228 µM) -3.45 ± 0.47%; (100 µM) 12.4 ± 2.7%.

As for `c1ccc2occc2c1` [2,3-Benzofuran], the LDH release cytotoxicity runs as follows: (0.03162 µM) -0.572 ± 0.84%; (0.1 µM) -1.07 ± 0.4%; (0.3162278 µM) -0.829 ± 0.4%; (1 µM) -0.181 ± 0.71%; (3.16228 µM) -1.1 ± 0.81%; (10 µM) 0.338 ± 0.67%. In addition, the LDH release cytotoxicity reads like this: (31.6228 µM) 2.32 ± 1.2%; (100 µM) 2.02 ± 0.38%.

For the compound `OCCOCCO` [Diethylene glycol], the LDH release cytotoxicity runs as follows: (0.03162 µM) -0.757 ± 0.022%; (0.1 µM) -1.02 ± 0.94%; (0.3162278 µM) -1.03 ± 0.3%; (1 µM) -0.601 ± 0.41%; (3.16228 µM) -1.16 ± 0.75%; (10 µM) -0.563 ± 0.71%. For the same compound, the LDH release cytotoxicity reads like this: (31.6228 µM) -0.731 ± 0.0084%; (100 µM) 0.422 ± 0.8%.

Consider `CCOc1ccc(C(C)(C)COCc2cccc(Oc3ccccc3)c2)cc1` [Etofenprox], for which the LDH release cytotoxicity runs as follows: (0.03162 µM) -2.22 ± 0.67%; (0.1 µM) -3.48 ± 0.5%; (0.3162278 µM) -2.37 ± 0.096%; (1 µM) -2.59 ± 0.48%; (3.16228 µM) -2.77 ± 0.28%; (10 µM) -2.63 ± 0.86%. Besides, the LDH release cytotoxicity (31.6228 µM) is -2.47 ± 0.33% and the LDH release cytotoxicity (100 µM) was -1.82 ± 0.12%.

Turning to `C1CNCCN1` [Piperazine], the LDH release cytotoxicity was -6.9 ± 0.6% (0.03162 µM); -7.27 ± 0.36% (0.1 µM); -6.65 ± 1% (0.3162278 µM); -7.16 ± 1.9% (1 µM); -6.57 ± 0.29% (3.16228 µM); -6.04 ± 1.4% (10 µM). Moreover, the LDH release cytotoxicity is, setting by setting: (31.6228 µM) -6.14 ± 0.77%; (100 µM) -6.01 ± 1.2%.

Turning to `Cc1c(COC(=O)C2C(C=C(Cl)C(F)(F)F)C2(C)C)cccc1-c1ccccc1` (centres undefined) [Bifenthrin], the LDH release cytotoxicity is, setting by setting: (0.03162 µM) -1.61 ± 1.9%; (0.1 µM) -2.22 ± 0.62%; (0.3162278 µM) -2.26 ± 0.28%; (1 µM) -2.12 ± 0.18%; (3.16228 µM) -1.77 ± 0.75%; (10 µM) -1.98 ± 0.032%. In addition, the LDH release cytotoxicity (31.6228 µM) is -2.13 ± 0.62% and the LDH release cytotoxicity (100 µM) was -0.496 ± 0.96%.

With `CN/C(=N\[N+](=O)[O-])NCc1cnc(Cl)s1` [Clothianidin], the LDH release cytotoxicity by setting is: (0.03162 µM) -0.975 ± 0.7%; (0.1 µM) -0.34 ± 0.13%; (0.3162278 µM) -1.12 ± 0.038%; (1 µM) -0.952 ± 0.36%; (3.16228 µM) -0.743 ± 0.035%; (10 µM) -0.23 ± 0.17%. The LDH release cytotoxicity by setting is: (31.6228 µM) -0.557 ± 0.27%; (100 µM) 0.586 ± 0.26%.

For `O=C(O)C1(C(=O)Nc2ccc(Cl)cc2Cl)CC1` [Cyclanilide], the LDH release cytotoxicity (0.03162 µM) was found to be 0.835 ± 0.011%; the LDH release cytotoxicity (0.1 µM) is -0.444 ± 1.4%; the LDH release cytotoxicity (0.3162278 µM) is -0.309 ± 0.12%; the LDH release cytotoxicity (1 µM) was -1.03 ± 0.15%; the LDH release cytotoxicity (3.16228 µM) is -0.632 ± 1.9%; the LDH release cytotoxicity (10 µM) amounted to 0.531 ± 0.17%. For the same compound, the LDH release cytotoxicity reads like this: (31.6228 µM) 2.66 ± 0.46%; (100 µM) 4.54 ± 2%.

Take `c1ccc2[nH]c(-c3cscn3)nc2c1` [Thiabendazole]: the LDH release cytotoxicity is -1.05 ± 0.62% (0.03162 µM); -0.974 ± 0.082% (0.1 µM); -1.37 ± 0.03% (0.3162278 µM); -1.6 ± 0.34% (1 µM); -1.13 ± 0.68% (3.16228 µM); -0.856 ± 0.24% (10 µM). Moreover, the LDH release cytotoxicity is, setting by setting: (31.6228 µM) 0.392 ± 0.63%; (100 µM) 5.7 ± 1.5%.

In the case of `OC(c1ccc(Cl)cc1)(c1ccc(Cl)cc1)C(Cl)(Cl)Cl` [Dicofol], the LDH release cytotoxicity was -4.47 ± 0.11% (0.03162 µM); -4.19 ± 0.15% (0.1 µM); -3.36 ± 1.2% (0.3162278 µM); -3.88 ± 0.76% (1 µM); -3.71 ± 1.1% (3.16228 µM); -3.02 ± 0.35% (10 µM). Further, the LDH release cytotoxicity was -3.41 ± 0.081% (31.6228 µM) and -0.0654 ± 3% (100 µM).

Take `ClC1C(Cl)C(Cl)C(Cl)C(Cl)C1Cl` (stereo not drawn) [beta-Hexachlorocyclohexane]: the LDH release cytotoxicity is -4.28 ± 0.89% (0.03162 µM); -4.78 ± 1.2% (0.1 µM); -4.47 ± 0.78% (0.3162278 µM); -4.51 ± 0.96% (1 µM); -3.52 ± 0.096% (3.16228 µM); -2.88 ± 0.6% (10 µM). The LDH release cytotoxicity is, setting by setting: (31.6228 µM) -2.3 ± 2%; (100 µM) -0.552 ± 0.4%.

As for `CC(C)(c1cc(Br)c(O)c(Br)c1)c1cc(Br)c(O)c(Br)c1` [3,3',5,5'-Tetrabromobisphenol A], the LDH release cytotoxicity was -1.12 ± 0.1% (0.03162 µM); -1.08 ± 0.92% (0.1 µM); -0.948 ± 1.4% (0.3162278 µM); -1.1 ± 0.047% (1 µM); -0.766 ± 0.24% (3.16228 µM); -0.155 ± 0.087% (10 µM). For the same compound, the LDH release cytotoxicity amounted to 0.933 ± 0.068% (31.6228 µM) and 3.36 ± 1.1% (100 µM).

With `O=CCCCC=O` [Glutaraldehyde], the LDH release cytotoxicity is, setting by setting: (0.03162 µM) -0.884 ± 0.62%; (0.1 µM) -1.62 ± 0.91%; (0.3162278 µM) -1.72 ± 0.78%; (1 µM) -1.74 ± 0.39%; (3.16228 µM) -1.11 ± 0.16%; (10 µM) -0.663 ± 0.23%. In addition, the LDH release cytotoxicity was -1.18 ± 0.084% (31.6228 µM) and 0.174 ± 0.34% (100 µM).

Take `O=C(Nc1ccc(Cl)cc1)Nc1ccc(Cl)c(Cl)c1` [Triclocarban]: the LDH release cytotoxicity is -2.18 ± 0.41% (0.03162 µM); -1.67 ± 0.93% (0.1 µM); -1.81 ± 0.65% (0.3162278 µM); -1.44 ± 1.4% (1 µM); -1.83 ± 0.3% (3.16228 µM); -0.606 ± 2.2% (10 µM). The LDH release cytotoxicity reads like this: (31.6228 µM) -1.24 ± 0.34%; (100 µM) 0.167 ± 2%.

For `CC1(C)C(C=C(Cl)Cl)C1C(=O)OC(C#N)c1cccc(Oc2ccccc2)c1` (centres undefined) [Cypermethrin], the LDH release cytotoxicity (0.03162 µM) is -0.819 ± 0.38%; the LDH release cytotoxicity (0.1 µM) is -1.77 ± 0.13%; the LDH release cytotoxicity (0.3162278 µM) is -1.92 ± 0.05%; the LDH release cytotoxicity (1 µM) is -2.15 ± 0.89%; the LDH release cytotoxicity (3.16228 µM) is -1.45 ± 0.7%; the LDH release cytotoxicity (10 µM) is -1.44 ± 0.55%. In addition, the LDH release cytotoxicity is -0.803 ± 0.26% (31.6228 µM) and -0.801 ± 0.4% (100 µM).

On to `CC(C)C1(C)N=C(c2ncccc2C(=O)O)NC1=O` (centres undefined) [Imazapyr], for which the LDH release cytotoxicity (0.03162 µM) was -1.83 ± 0.41%; the LDH release cytotoxicity (0.1 µM) is -1.02 ± 0.061%; the LDH release cytotoxicity (0.3162278 µM) is -1.62 ± 0.63%; the LDH release cytotoxicity (1 µM) is -0.872 ± 0.078%; the LDH release cytotoxicity (3.16228 µM) is -0.897 ± 0.67%; the LDH release cytotoxicity (10 µM) is -1.03 ± 0.39%. Further, the LDH release cytotoxicity is, setting by setting: (31.6228 µM) -0.823 ± 0.31%; (100 µM) 0.363 ± 0.9%.

With `CCOC(=O)NCCOc1ccc(Oc2ccccc2)cc1` [Fenoxycarb], the LDH release cytotoxicity is -2.3 ± 0.29% (0.03162 µM); -2.15 ± 0.69% (0.1 µM); -2.2 ± 0.96% (0.3162278 µM); -2.52 ± 0.77% (1 µM); -2.33 ± 0.49% (3.16228 µM); -1.4 ± 0.053% (10 µM). The LDH release cytotoxicity reads like this: (31.6228 µM) -2.64 ± 0.77%; (100 µM) 16.6 ± 5.7%.

On to `CCOC(=O)COc1cc(-n2ncc(C(F)(F)F)c(C)c2=O)c(F)cc1Cl` [Flufenpyr-ethyl], for which the LDH release cytotoxicity reads like this: (0.03162 µM) -1.89 ± 1.7%; (0.1 µM) -1.45 ± 0.22%; (0.3162278 µM) -1.14 ± 0.024%; (1 µM) -1.34 ± 0.57%; (3.16228 µM) -1.22 ± 0.67%; (10 µM) -0.592 ± 0.22%. For the same compound, the LDH release cytotoxicity is -0.509 ± 1.1% (31.6228 µM) and 0.726 ± 0.9% (100 µM).
